The format of data set [1] is physicochemical.
Data set [2] relates to Alternaria brassicae. Put plainly: In vivo preventive test on Alternaria brassicae (leaf spot on radish). To be noted: 500 ppm; radish plants sprayed 24 hours before contamination; grading 5 days after contamination vs control plants. How it is done:
Radish plants (“Pernod Clair” variety), sown in starter cups on a 50/50 peat soil-pozzolana substrate and grown at 17° C., are treated at the 2-leaf stage by spraying with the active ingredient prepared as described above. Plants, used as controls, are treated with the mixture of acetone/tween/DMSO/water not containing the active material. After 24 hours, the plants are contaminated by spraying the leaves with an aqueous suspension of Alternaria brassicae spores (50 000 spores per ml). The spores are collected from a 15-day-old culture. […] Grading (% of efficacy) is carried out 5 days after the contamination, in comparison with the control plants.

Data set [3] relates to Botrytis cinerea. The data set is described as follows: In vivo preventive test on Botrytis cinerea (grey mould). Particulars: 500 ppm; gherkin plants sprayed 24 hours before contamination; grading 4-5 days after contamination vs control plants. The method, boiled down: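 Gherkin plants ("Vert petit de Paris") sprayed with compound at Z11 cotyledon stage, then inoculated 24 h later with B. cinerea spores (50 000/ml) in PDB/fructose/NH4NO3/KH2PO4 nutrient solution. Incubated at 17 °C, 80% RH; % efficacy versus solvent-treated controls graded 4–5 days after contamination.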

Data set [4] concerns Phytophthora infestans. Format: in vivo. To be noted: 500 ppm; tomato plants sprayed 24 hours before contamination; grading 5 days after contamination vs control plants.
In data set [5] the test system is Septoria tritici. The data set is described as follows: In vivo preventive test on Septoria tritici (leaf spot on wheat). To be noted: 500 ppm; wheat plants sprayed 24 hours before contamination; grading 21 to 28 days after contamination vs control plants. The method, boiled down:
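Scipion wheat at 1-leaf stage sprayed with compound, controls receiving acetone/tween/DMSO/water vehicle; 24 h later leaves inoculated with Septoria tritici spores (500 000 spores per ml). Efficacy (%) graded versus control plants 21 to 28 days after contamination.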

Data set [6] concerns Sphaerotheca fuliginea. Put plainly: In vivo preventive test on Sphaerotheca fuliginea (powdery mildew on cucurbits). Particulars: 500 ppm; gherkin plants sprayed 24 hours before contamination; grading 12 days after contamination vs control plants. In outline: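 Preventive spray of gherkin plants at Z11 cotyledon stage, grown at 24° C; inoculation 24 hours later with Sphaerotheca fuliginea spores (100 000 spores per ml). Efficacy graded 12 days post-inoculation as % versus solvent-treated control plants.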

The mark [7] stands for this setting: method [a]: HPLC/LC-MS on reversed phase at pH 2.7, 0.1% formic acid in water / acetonitrile, gradient 10% to 95% acetonitrile.
Setting [8] is: method [a]: HPLC/LC-MS on reversed phase at pH 2.7, 0.1% formic acid in water / acetonitrile, linear gradient 10% to 95% acetonitrile.
The mark [9] stands for this setting: HPLC on reversed phase columns, method [a]: pH 2.7, 0.1% formic acid in water / acetonitrile, linear gradient 10% to 95% acetonitrile.
[10] abbreviates: HPLC on reversed phase columns, method [a]: pH 2.7, 0.1% formic acid in water and acetonitrile, linear gradient 10% to 95% acetonitrile.

This is an account of results in patent US9510598B2, “Nitrogen-containing heterocyclic compounds for plant disease control” (BAYER CROPSCIENCE AG, priority 2012, dated 2016).

Structures are written as SMILES. Where “and” joins values, the source holds several entries; their conditions need not be identical. Equal entries are not always repeated. Where two headings read alike, the source gives them in different places.

Regarding `CCOCCCNC(=O)C1(CC2CC2)CC(c2ccc3ncc(Br)cc3c2)=NO1` (racemic) [compound 426], the “log P” value in data set [1] (setting [7]) was 3.55[a]. The “% of efficacy (protection)” value in data set [2] worked out at 78%.

On to `O=C(NC1CC1)C1(CC2CC2)CC(c2ccc3ncc(Br)cc3c2)=NO1` (racemic) [compound 427], for which the “log P” value in data set [1] (setting [7]) was 3.20[a]. Besides, the “% of efficacy (protection)” value in data set [2] amounted to 83%.

With `CCn1cc(CNC(=O)C2(CC)CC(c3ccc4ncc(Br)cc4c3)=NO2)c(C)n1` (stereo not drawn) [compound 70], the “log P” value in data set [1] (setting [8]) was 2.66^[a]. In addition, the “% of efficacy (protection)” value worked out at 93% in data set [3], 82% in data set [4], 100% in data set [5] and 100% in data set [6].

For the compound `C#Cc1cnc2ccc(C3=NOC(C)(C(=O)NCc4cn(CCC)nc4C)C3)cc2c1` (stereo not drawn) [compound 83], the “log P” value in data set [1] (setting [8]) is 2.39^[a]. The “% of efficacy (protection)” value was 100% in data set [3]; 97% in data set [4]; 92% in data set [5]; 97% and 98% in data set [6].

Consider `CC1(C(=O)NCc2ccc(Oc3ccccc3)cc2)CC(c2ccc3ncc(Br)cc3c2)=NO1` (stereo not drawn) [compound 84], for which the “log P” value in data set [1] (setting [8]) was 4.24^[a]. Besides, the “% of efficacy (protection)” value in data set [2] turned out to be 80%.

On to `CC1(C(=O)NCc2ccc(Cl)cc2Cl)CC(c2ccc3ncc(Br)cc3c2)=NO1` (stereo not drawn) [compound 95], for which the “log P” value in data set [1] (setting [8]) was 4.16^[a]. The “% of efficacy (protection)” value in data set [2] is 70%.

`CC1(C(=O)NCc2ccnc(N3CCOCC3)c2)CC(c2ccc3ncc(Br)cc3c2)=NO1` (stereo not drawn) [compound 98]: the “log P” value in data set [1] (setting [8]) is 1.51^[a]. Also, the “% of efficacy (protection)” value in data set [2] worked out at 70%.

Regarding `CCn1ncc(CNC(=O)C2(C)CC(c3ccc4ncc(Br)cc4c3)=NO2)c1C` (stereo not drawn) [compound 100], in data set [1] (setting [8]), the “log P” value was 2.37^[a]. For the same compound, the “% of efficacy (protection)” value in data set [3] is given as 97%; in data set [4], 98%; in data set [5], 75%; in data set [6], 94%.

In the case of `CC1(C(=O)NCc2ccco2)CC(c2ccc3ncc(Br)cc3c2)=NO1` (stereo not drawn) [compound 161], the “log P” value in data set [1] (setting [8]) is 2.82^[a]. For the same compound, the “% of efficacy (protection)” value in data set [2] was 75%.

Turning to `C#Cc1cnc2ccc(C3=NOC(C)(C(=O)NCc4cnn(CC)c4C)C3)cc2c1` (stereo not drawn) [compound 195], the “log P” value in data set [1] (setting [8]) was 2.11^[a]. In addition, the “% of efficacy (protection)” value in data set [3] is given as 97%; in data set [4], 100%; in data set [5], 100%; in data set [6], 98%.

Regarding `C#Cc1cnc2ccc(C3=NOC(C)(C(=O)NCc4cnn(C(C)C)c4)C3)cc2c1` (stereo not drawn) [compound 197], in data set [1] (setting [8]), the “log P” value is 2.23^[a]. Moreover, the “% of efficacy (protection)” value in data set [3] is on record as 100%; in data set [4] it was 97%; in data set [5] it was 86%; in data set [6], 98%.

Consider `CC(NC(=O)C1(C)CC(c2ccc3ncc(Br)cc3c2)=NO1)C1CCOC1` (stereo not drawn) [compound 291], for which the “log P” value in data set [1] (setting [9]) is 2.46[a]. Also, the “% of efficacy (protection)” value was 88% in data set [3], 87% in data set [4], 100% in data set [5] and 80% in data set [6].

Take `C#Cc1cnc2ccc(C3=NOC(OC)(C(=O)NCc4c(C)cnn4CCC)C3)cc2c1` (stereo not drawn) [compound 409]: the “log P” value in data set [1] (setting [7]) was 2.33[a]. Also, the “% of efficacy (protection)” value in data set [3] is recorded as 100%; in data set [4], 100%; in data set [5] it was 100%; in data set [6] it was 98%.

On to `C#Cc1cnc2ccc(C3=NOC(C)(C(=O)NC(C)(C)/C=N/OC)C3)cc2c1` (stereo not drawn) [compound 463], for which the “log P” value in data set [1] (setting [7]) was 2.92[a]. Also, the “% of efficacy (protection)” value was 100% in data set [3], 100% in data set [4], 100% in data set [5] and 97% in data set [6].

As for `C#Cc1cnc2ccc(C3=NOC(C)(C(=O)NCc4cnn(CC)c4CC)C3)cc2c1` (stereo not drawn) [compound 464], the “log P” value in data set [1] (setting [7]) is 2.37[a]. Further, the “% of efficacy (protection)” value in data set [3] is reported as 98%; in data set [4], 100%; in data set [5] it was 100%; in data set [6], 100%.

On to `C#Cc1cnc2ccc(C3=NOC(C)(C(=O)NC(C)(C)C#CCOC)C3)cc2c1` (stereo not drawn) [compound 465], for which, in data set [1] (setting [7]), the “log P” value was 2.82[a]. The “% of efficacy (protection)” value in data set [3] came to 88%; in data set [4], 100%; in data set [5] it was 97%; in data set [6], 81%.

Take `C#Cc1cnc2ccc(C3=NOC(C)(C(=O)NC4CCOCC4C)C3)cc2c1` (stereo not drawn) [compound 470]: in data set [1] (setting [7]), the “log P” value was 2.21[a]. The “% of efficacy (protection)” value is on record as 100% in data set [3], 98% in data set [4], 97% in data set [5] and 75% in data set [6].

As to `CC1(C)OCC(CNC(=O)C2(C)CC(c3ccc4ncc(I)cc4c3)=NO2)O1` (stereo not drawn) [compound 474], in data set [1] (setting [7]), the “log P” value was 2.78[a]. The “% of efficacy (protection)” value in data set [3] is listed as 100%; in data set [4] it was 78%; in data set [5], 97%; in data set [6], 98%.

Take `CCCn1cc(CNC(=O)C2(CC)CC(c3ccc4ncc(Br)cc4c3)=NO2)c(C)n1` (stereo not drawn) [compound 500]: in data set [1] (setting [7]), the “log P” value is 2.91[a]. The “% of efficacy (protection)” value in data set [3] amounted to 85%; in data set [4], 94%; in data set [5], 86%; in data set [6], 100%.

In the case of `C#Cc1cnc2ccc(C3=NOC(C)(C(=O)NC(C)COCC)C3)cc2c1` (stereo not drawn) [compound 506], in data set [1] (setting [7]), the “log P” value is 2.55[a]. For the same compound, the “% of efficacy (protection)” value in data set [3] is 100%; in data set [4], 94%; in data set [5] it was 100%; in data set [6], 97%.

On to `C#Cc1cnc2ccc(C3=NOC(OC)(C(=O)NC(C)(C)c4cc(C)ccn4)C3)cc2c1` (stereo not drawn) [compound 511], for which, in data set [1] (setting [7]), the “log P” value is 1.95[a]. Also, the “% of efficacy (protection)” value in data set [3] is on record as 100%; in data set [4], 100%; in data set [5], 100%; in data set [6], 88%.

Take `C#Cc1cnc2ccc(C3=NOC(OC)(C(=O)NC(C)(C)c4nc(C)cs4)C3)cc2c1` (stereo not drawn) [compound 514]: the “log P” value in data set [1] (setting [9]) was 2.90[a]. Moreover, the “% of efficacy (protection)” value in data set [3] worked out at 100%; in data set [4] it was 97%; in data set [5], 98%; in data set [6], 75%.

In the case of `C#Cc1cnc2c(C)cc(C3=NOC(C)(C(=O)NCc4cn(CCC)nc4C)C3)cc2c1` (stereo not drawn) [compound 533], the “log P” value in data set [1] (setting [9]) was 2.90[a]. The “% of efficacy (protection)” value was found to be 100% in data set [3], 90% in data set [4], 100% in data set [5] and 100% in data set [6].

Consider `C#Cc1cnc2c(Cl)cc(C3=NOC(C)(C(=O)NCc4cn(CC)nc4C)C3)cc2c1` (stereo not drawn) [compound 550], for which the “log P” value in data set [1] (setting [9]) was 2.53[a]. For the same compound, the “% of efficacy (protection)” value was 98% in data set [3], 83% in data set [4], 100% in data set [5] and 80% in data set [6].

Consider `CCn1cc(CNC(=O)C2(SC)CC(c3ccc4ncc(Br)cc4c3)=NO2)c(C)n1` (stereo not drawn) [compound 565], for which, in data set [1] (setting [9]), the “log P” value was 2.51[a]. The “% of efficacy (protection)” value in data set [3] is listed as 100%; in data set [4] it was 99%; in data set [5] it was 100%; in data set [6], 98%.

Take `C#Cc1cnc2ccc(C3=NOC(C=C)(C(=O)NCC4COC(C)(C)O4)C3)cc2c1` (stereo not drawn) [compound 725]: the “log P” value in data set [1] (setting [10]) is 2.66[a]. For the same compound, the “% of efficacy (protection)” value is 98% in data set [3], 83% in data set [4], 100% in data set [5] and 98% in data set [6].

For `C=CC1(C(=O)NCCCOCC)CC(c2ccc3ncc(I)cc3c2)=NO1` (stereo not drawn) [compound 730], the “log P” value in data set [1] (setting [10]) is 3.19[a]. Besides, the “% of efficacy (protection)” value in data set [3] was 85%; in data set [4], 100%; in data set [5], 100%; in data set [6], 98%.
